These results are taken from patent publication US20090087420A1, “STABLE SOLUTION OF REDUCED COENZYME Q” (Kaneka Corporation, priority 2001, published 2009).

The nature of this series: Oxidation stability of reduced coenzyme Q10 solubilized with a surfactant during air storage. It counts as physicochemical. The note with it: for period of stable storage: 0.05% by weight reduced coenzyme Q10, air storage at 23° C. (FIG. 4). The method, then:
A solution of reduced coenzyme Q10 using a surfactant was prepared by the method described below, and the oxidation stability under storage was evaluated. As the surfactant, Polysolvate 80 (Tween 80) or polyoxyethylene hardened castor oil (HCO 60) was used, and an aqueous solution of 1% by weight or 0.1% by weight of the surfactant was prepared. Then, the reduced coenzyme Q10 was added to the aqueous solution so that the final concentration of the solution was 0.05% by weight. […] In FIG. 4, each value is an average with n=2. […] The results of this test indicate that with a surfactant concentration of 0.1% by weight, the reduced coenzyme Q10 can be stably stored at 23° C. for about 1 month. […] Therefore, when preparing a solution or emulsion with a surfactant, the concentration of the surfactant used is decreased to prepare a solution which can be stored for a longer period of time. A solution or emulsion with 1% by weight or more of a surfactant can be used under conditions in which the solution or emulsion is prepared before use, or the solution or emulsion is stored for a short period or stored in an airtight condition such as a completely anaerobic condition.

`COc1c(O)c(C)c(C/C=C(\C)CC/C=C(\C)CC/C=C(\C)CC/C=C(\C)CC/C=C(\C)CC/C=C(\C)CC/C=C(\C)CC/C=C(\C)CC/C=C(\C)CCC=C(C)C)c(O)c1OC` [reduced coenzyme Q10]: the “period of stable storage” value (surfactant (Tween 80 or HCO 60) concentration 0.1% by weight) was “about 1 month” and the “period of stable storage” value (surfactant (Tween 80 or HCO 60) concentration 1% by weight) was found to be 1 week. Besides, where the note is “surfactant concentration 1% by weight, after 1 week of air storage at 23° C.”, the “oxidation after the stable period (in words)” value is on record as “rapidly oxidized”.
